Experimental data taken from patent publication US20020006399A1, “Therapeutic uses of hormonal manipulation using combinations of various agents to treat atherosclerosis” (priority 1999, published 2002).
Counter-ions that a name gives are not always drawn.

Key:
Assay type in all cases: in vivo
prostate cancer patients = test: Retrospective chart review: cardiac events in prostate cancer patients treated with LHRH inhibitors vs controls; settings: for Events/Year: cardiac events per subject year, Total Control .0338; for observed difference between the proportions vs Total Control: events/year, treated group vs Total Control (Groups 1 + 4); for Cardiac Events: heart attack, coronary artery bypass or angioplasty, on drug at least one year, Total Control 32 events over 948 subject years; for heart attacks compared with controls: treated patients vs controls
Experimental: Another retrospective study was performed which compared the rates of patient reported heart attack in several groups 1-control group of males entering the urology office for any routine complaint. 2-a group of prostate cancer patients treated with Leuprolide acetate, a LHRH inhibitor. 3-a group of prostate cancer patients treated with Goserelin acetate (Zoladex), a LHRH inhibitor. 4-a group of prostate cancer patients not treated with hormonal manipulation (neither Leuprolide or Goserelin). 5-all patients on LHRH inhibitors (group 2+group 3). The patients on either Leuprolide or Goserelin were treated with the recommended doses indicated for the treatment of prostatic carcinoma, at either one or three month intervals depending on the preparation used. Leuprolide was dosed at 7.5 mg monthly (single intramuscular injection) or at 22.5 mg at 3 month intervals (single intramuscular injection). Goserelin was dosed at 3.6 mg monthly or at a dose of 10.8 mg at 3 month intervals (subcutaneous injection). The various groups of office patients were evaluated by chart […]. In groups 2 and 3 only those on drug for at least one year were considered. Cardiac event is defined either the history of a heart attack or occurrence of coronary artery bypass or angioplasty. In control groups only events occurring in the 3 years prior to the questionnaire are charted.

[1] = test system: patients diagnosed with benign prostatic hypertrophy; test: First retrospective study: cardiac events (cardiac bypass or heart attack) in BPH patients on finasteride vs alpha-blocker control; settings: finasteride treated group of 22 subjects, 61 subject-years, on drug at least a year, 5 mg oral tablet a day; control 7 events over 288 subject-years
Experimental: Finasteride was being administered at a dosage of a single oral 5 mg tablet a day. This is the same tablet used in treatment of BPH as disclosed in U.S. Pat. No. 5,175,155 and such dosage applies in the present invention. However, use of a 2 mg or 10 mg oral tablet is contemplated. Two studies were undertaken to determine whether finasteride was, in fact, effective in lessening the incidence of heart disease and other complications of atherosclerosis. The result of the first study is as follows; A list of patients diagnosed with benign prostatic hypertrophy in late 1992 and 1993 was located. Treatment had been initiated with either finasteride or another oral agent of a different class (alpha-blocker). Patients were then contacted and an interval history was taken. In the control group of 45 subjects, 7 events (either cardiac bypass or heart attack) occurred in 6 subjects over 288 subject-years. In the finasteride treated group of 22 subjects there were no events over 61 subject-years. […] (95% Cl equal to 0.65% to 4.2%).

patients of the practice = test: Second study: questionnaire on cardiac events in patients of the practice treated with finasteride
Experimental: Finasteride was being administered at a dosage of a single oral 5 mg tablet a day. This is the same tablet used in treatment of BPH as disclosed in U.S. Pat. No. 5,175,155 and such dosage applies in the present invention. However, use of a 2 mg or 10 mg oral tablet is contemplated. Two studies were undertaken to determine whether finasteride was, in fact, effective in lessening the incidence of heart disease and other complications of atherosclerosis. In the second study patients of the practice were given a questionnaire. Various patients had been treated with finasteride for varying lengths of time. Only those on the drug for at least one year were considered. The average time on finasteride was 3 years. The number of cardiac events occurring in the patients taking finasteride was only 4 events over 242 patient-years. (1.6%/yr.) In the control group 26 events occurred in the 3 years prior over 732 patient-years. (3.5%/yr.) The 45% decrease observed in cardiac events is believed to be significant. (90% Cl equal to 1.4% to 3.7%).

[2] = test system: patients treated for benign prostatic hypertrophy; test: Clinical observation of patients given finasteride for benign prostatic hypertrophy; settings: finasteride single oral 5 mg tablet a day for BPH
Experimental: Finasteride was being administered at a dosage of a single oral 5 mg tablet a day. This is the same tablet used in treatment of BPH as disclosed in U.S. Pat. No. 5,175,155 and such dosage applies in the present invention. However, use of a 2 mg or 10 mg oral tablet is contemplated.

Compound | Events/Year (prostate cancer patients) | observed difference between the proportions vs Total Control (prostate cancer patients) | Cardiac Events (prostate cancer patients) | heart attacks compared with controls (prostate cancer patients) | events (either cardiac bypass or heart attack) [1] | cardiac event rate (patients of the practice; 4 events over 242 patient-years, control 3.5%/yr) [%/yr] | decrease observed in cardiac events (patients of the practice; finasteride vs control group) [%] | number of cardiac events (patients of the practice; over 242 patient-years, on drug at least one year, average 3 years, control 26 events over 732 patient-years) [events] | incidence of atherosclerosis and heart disease (observation) [2]
CCNC(=O)[C@@H]1CCCN1C(=O)[C@H](CCCNC(=N)N)NC(=O)[C@H](CC(C)C)NC(=O)[C@@H](CC(C)C)NC(=O)[C@H](Cc1ccc(O)cc1)NC(=O)[C@H](CO)NC(=O)[C@H](Cc1c[nH]c2ccccc12)NC(=O)[C@H](Cc1c[nH]cn1)NC(=O)[C@@H]1CCC(=O)N1 [Lupron, 5-oxo-L-prolyl-L-histidyl-L-tryptophyl-L-seryl-L-tyrosyl-D-leucyl-L-leucyl-L-arginyl-N-ethyl-L-prolinamide acetate (salt)] | .00847 | 0.253 | 1 | fewer heart attacks than controls |  |  |  |  | 
CC(C)(C)NC(=O)[C@H]1CC[C@H]2[C@@H]3CC[C@H]4NC(=O)C=C[C@]4(C)[C@H]3CC[C@]12C [finasteride, 4-azaandrost-1-ene-17-carboxamide, N-(1,1-dimethylethyl)-3oxo-(5alpha 17beta)-] |  |  |  |  | no events | 1.6 | 45 | 4 | lower incidence of atherosclerosis and heart disease
CC(C)C[C@H](NC(=O)[C@@H](COC(C)(C)C)NC(=O)[C@H](Cc1ccc(O)cc1)NC(=O)[C@H](CO)NC(=O)[C@H](Cc1c[nH]c2ccccc12)NC(=O)[C@H](Cc1cnc[nH]1)NC(=O)[C@@H]1CCC(=O)N1)C(=O)N[C@@H](CCCNC(=N)N)C(=O)N1CCC[C@H]1C(=O)NNC(N)=O [Zoladex, pyro-Glu-His-Trp-Ser-Tyr-D-Ser(Bu)-Leu-Arg-Pro-Azgly-NH2 acetate] | .0161 | 0.0177 | 1 | fewer heart attacks than controls |  |  |  |  | 
